# Measurements from US20090030039A1, “Piperidine Derivatives as Cxcr3 Receptor Antagonists” (priority 2006, published 2009).
# Target: T1, human CXCR3 (Homo sapiens, UniProt P49682)
# T1 construct: expressed in transfected cells; host or cells: CHO cells (membrane preparation)
# T1 sequence (P49682 1-368): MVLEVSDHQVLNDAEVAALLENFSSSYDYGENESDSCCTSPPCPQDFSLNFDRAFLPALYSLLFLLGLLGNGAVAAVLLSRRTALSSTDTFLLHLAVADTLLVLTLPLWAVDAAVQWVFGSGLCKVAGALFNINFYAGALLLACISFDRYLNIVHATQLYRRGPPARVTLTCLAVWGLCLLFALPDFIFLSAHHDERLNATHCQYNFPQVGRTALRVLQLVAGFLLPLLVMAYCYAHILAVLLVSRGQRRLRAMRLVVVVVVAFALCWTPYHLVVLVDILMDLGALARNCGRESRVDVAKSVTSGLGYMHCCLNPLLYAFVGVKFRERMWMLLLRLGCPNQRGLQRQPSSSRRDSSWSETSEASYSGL
# Assay: [35S]GTPγS exchange assay, CXCR3 receptor inhibition (hI-TAC-induced GTPγS-binding)
# Assay type: biochemical
# Details: -log IC50 (molar) inhibiting 50% of specific I-TAC-induced GTPγS-binding; membranes of human CXCR3-transfected CHO cells
# Method: CXCR3 Receptor Inhibition was Examined in a [^35S]GTPγS Exchange Assay
# The exchange of guanosine 5′-[^35S]triphosphate was measured on membranes of human CXCR3-transfected CHO cells. [^35S]GTPγS exchange assays were performed in 96-well plates with 10 μg of membrane protein/well using basic flashplates (Perkin Elmer). Compounds were dissolved in DMSO and diluted with incubation buffer to yield required concentrations with 9% DMSO. Incubation buffer is composed of 20 mM HEPES, 100 mM NaCl, 3 μM GDP and 1 mM MgCl2, pH 7.4. […] Compound, membranes, hI-TAC (interferon-inducible T-cell alpha chemoattractant) and [^35S]GTPγS were added in a total volume of 200 μl. First, 20 μl of the appropriate compound dilution and 140 μl membranes from CXCR3-CHO cells were dissolved in membrane incubation buffer and pre-incubated for 30 minutes at 30° C. Then, 20 μl of hI-TAC dissolved at 30 nM in incubation buffer was added to the membranes and the mixture containing 1% of DMSO was incubated for another 30 minutes at 30° C. […] After 1 minute shaking and 30 minutes incubation at 30° C., flashplates were centrifuged for 5 minutes at 2500 rpm at room temperature. Flashplate bound radioactivity was determined by liquid scintillation counting. Basal GTPγS-binding was measured in 8 wells with membranes incubated in the same volume with 1% DMSO, without I-TAC. Maximal GTPγS-binding was measured in 8 wells with membranes incubated with 1% DMSO and 3 nM I-TAC. […] IC50 values were calculated using non-linear regression in Graphpad Prism.
row,pIC50,Structure (SMILES)
1,5.8,O=C1NCCCC1(c1ccccc1)C1CCN(Cc2ccc(Br)cc2)CC1 (stereo not shown) [Compound 142]
2,6.0,O=C1CCC(c2cccnc2)(C2CCN(Cc3ccc(Br)cc3)CC2)C(=O)N1 (stereo not shown) [Compound 178]
3,5.3,O=C1CCC(c2ccc(C(=O)O)cc2)(C2CCN(Cc3ccc(Br)cc3)CC2)C(=O)N1 (stereo not shown) [Compound 193]

# Same assay, conditions: -log IC50 (molar) inhibiting 50% of specific I-TAC-induced GTPγS-binding; membranes of human CXCR3-transfected CHO cells; read-out: pIC50 (converted)
row,Structure (SMILES),IC50 [nM]
1,COC(=O)CCN1C(=O)CCC(c2ccccc2)(C2CCN(Cc3ccc(C(F)(F)F)cc3)CC2)C1=O (stereo not shown) [Compound 132],631
2,O=C1CCC(c2ccc(F)cc2)(C2CCN(Cc3ccc(F)c(Cl)c3)CC2)CN1 (stereo not shown) [Compound 134],3980
3,O=C1CCC(c2ccc(F)cc2)(C2CCN(Cc3ccc(Cl)cc3)CC2)CN1 (stereo not shown) [Compound 136],794
4,O=C1CCC(c2ccc(F)cc2)(C2CCN(Cc3ccc(Cl)cc3Cl)CC2)CN1 (stereo not shown) [Compound 138],1580
5,O=C1CCC(c2ccc(F)cc2)(C2CCN(Cc3ccc(Cl)c(F)c3)CC2)CN1 (stereo not shown) [Compound 139],1580
6,O=C1CCC(c2ccccc2)(C2CCN(Cc3ccc(Cl)c(Cl)c3)CC2)CN1 (stereo not shown) [Compound 140],794
7,O=C1CCC(c2ccc(F)cc2)(C2CCN(Cc3ccc(Cl)c(Cl)c3)CC2)CN1 (stereo not shown) [Compound 141],1580
8,O=C1CCC(c2ccc(F)cc2)(C2CCN(Cc3ccc(Br)cc3)CC2)CN1 (stereo not shown) [Compound 143],631
9,CC(c1ccc(Br)cc1)N1CCC(C2(c3ccc(F)cc3)CCC(=O)NC2)CC1 (stereo not shown) [Compound 144],631
10,Cc1cc(CN2CCC(C3(c4ccc(F)cc4)CCC(=O)NC3)CC2)ccc1Br (stereo not shown) [Compound 145],794
11,O=C1CCC(c2ccccc2)(C2CCN(Cc3ccc(C(F)(F)F)cc3)CC2)CN1 (stereo not shown) [Compound 146],2510
12,O=C1CCC(c2ccc(F)cc2)(C2CCN(Cc3ccc(OC(F)F)cc3)CC2)CN1 (stereo not shown) [Compound 147],3980
13,O=C1CCC(c2ccccc2)(C2CCN(Cc3ccc(OCc4ccc(Cl)cc4)cc3)CC2)CN1 (stereo not shown) [Compound 148],6310
14,O=C1CCC(c2ccccc2)(C2CCN(Cc3ccc(Cl)s3)CC2)C(=O)N1 (stereo not shown) [Compound 151],3160
15,O=C1CCC(c2ccccc2)(C2CCN(Cc3ccc(Cl)s3)CC2)C(=O)N1 (stereo not shown) [Compound 154],2510
16,Cc1cc(C)c(CN2CCC(C3(c4ccccc4)CCC(=O)NC3=O)CC2)c(C)c1 (stereo not shown) [Compound 157],3160
17,O=C1CCC(c2ccccc2)(C2CCN(Cc3cc4cc(Br)ccc4o3)CC2)C(=O)N1 (stereo not shown) [Compound 158],1260
18,CC(c1ccc(Br)cc1)N1CCC(C2(c3cccc(Cl)c3)CCC(=O)NC2=O)CC1 (stereo not shown) [Compound 164],1000
19,CC(c1ccc(Br)cc1)N1CCC(C2(c3cccc(C(=O)O)c3)CCC(=O)NC2=O)CC1 (stereo not shown) [Compound 165],794
20,O=C1CCC(c2ccncc2)(C2CCN(Cc3ccc(Cl)c(Cl)c3)CC2)C(=O)N1 (stereo not shown) [Compound 169],1000
21,CC(c1ccc(Br)cc1)N1CCC(C2(c3ccncc3)CCC(=O)NC2=O)CC1 (stereo not shown) [Compound 171],1580
22,O=C1CCC(c2ccccc2)(C2CCN(Cc3ccc(Cl)cc3)CC2)C(=O)N1Cc1ccc(Cl)cc1 (stereo not shown) [Compound 189],2000
23,O=C1CCC(c2ccc(F)cc2F)(C2CCN(Cc3ccc(Br)c(F)c3)CC2)C(=O)N1 (stereo not shown) [Compound 197],398
24,O=C1CCC(c2ccc(F)cc2F)(C2CCN(Cc3ccc4nonc4c3)CC2)C(=O)N1 (stereo not shown) [Compound 207],398

# Next, values leading:
row,IC50 [nM],Structure (SMILES)
1,1580,O=C1CCC(c2ccccc2)(C2CCN(Cc3ccc(F)cc3)CC2)CN1 (stereo not shown) [Compound 133]
2,1000,O=C1CCC(c2ccccc2)(C2CCN(Cc3ccc(Cl)cc3)CC2)CN1 (stereo not shown) [Compound 135]
3,631,O=C1CCC(c2ccccc2)(C2CCN(Cc3ccc(Cl)cc3Cl)CC2)CN1 (stereo not shown) [Compound 137]
4,5010,O=C1CCC(c2cccc(Cl)c2)(C2CCN(Cc3ccc4ccccc4c3)CC2)C(=O)N1 (stereo not shown) [Compound 149]
5,1000,O=C1CCC(c2ccc(F)cc2)(C2CCN(Cc3ccc4ccccc4c3)CC2)C(=O)N1 (stereo not shown) [Compound 150]
6,794,O=C1CCC(c2cccc(Cl)c2)(C2CCN(Cc3ccc(Cl)s3)CC2)C(=O)N1 (stereo not shown) [Compound 152]
7,1260,O=C1CCC(c2ccc(F)cc2)(C2CCN(Cc3ccc(Cl)s3)CC2)C(=O)N1 (stereo not shown) [Compound 153]
8,2510,O=C1CCC(c2ccccc2)(C2CCN(Cc3cc(F)c(F)cc3F)CC2)C(=O)N1 (stereo not shown) [Compound 155]
9,794,O=C1CCC(c2ccc(F)cc2)(C2CCN(Cc3cc(F)c(F)cc3F)CC2)C(=O)N1 (stereo not shown) [Compound 156]
10,316,O=C1CCC(c2cccc(C(=O)O)c2)(C2CCN(Cc3cc4cc(Br)ccc4o3)CC2)C(=O)N1 (stereo not shown) [Compound 160]
11,3160,O=C1CCC(c2ccc(F)cc2)(C2CCN(Cc3cc4cc(Br)ccc4o3)CC2)C(=O)N1 (stereo not shown) [Compound 161]
12,3980,O=C1CCC(c2ccc(F)cc2)(C2CCN(Cc3ccc4nonc4c3)CC2)C(=O)N1 (stereo not shown) [Compound 163]
13,5010,O=C1CCC(c2ccncc2)(C2CCN(Cc3ccc(-c4ccccc4)cc3)CC2)C(=O)N1 (stereo not shown) [Compound 174]
14,1000,O=C1CCC(c2cccnc2)(C2CCN(Cc3ccc(F)c(F)c3F)CC2)C(=O)N1 (stereo not shown) [Compound 175]
15,2000,O=C1CCC(c2cccnc2)(C2CCN(Cc3ccc(Cl)c(F)c3)CC2)C(=O)N1 (stereo not shown) [Compound 176]
16,1000,O=C1CCC(c2cccnc2)(C2CCN(Cc3ccc(Cl)c(Cl)c3)CC2)C(=O)N1 (stereo not shown) [Compound 177]

row,IC50 [nM],Structure (SMILES)
1,2000,O=C1CCC(c2cccnc2)(C2CCN(Cc3ccc(Br)cc3F)CC2)C(=O)N1 (stereo not shown) [Compound 179]
2,2510,O=C1CCC(c2cccnc2)(C2CCN(Cc3ccc(OC(F)(F)F)cc3)CC2)C(=O)N1 (stereo not shown) [Compound 180]
3,1260,O=C1CCC(c2ccncc2)(C2CCN(Cc3cc4cc(Br)ccc4o3)CC2)C(=O)N1 (stereo not shown) [Compound 183]
4,1580,O=C1CCC(c2cccnc2)(C2CCN(Cc3cc4cc(Br)ccc4o3)CC2)C(=O)N1 (stereo not shown) [Compound 184]
5,> 10000,O=C1CCC(c2ccc([N+](=O)[O-])cc2)(C2CCN(Cc3ccccc3[N+](=O)[O-])CC2)C(=O)N1 (stereo not shown) [Compound 186]
6,6310,O=C1CCC(c2ccc(C(=O)O)cc2)(C2CCN(Cc3ccc(F)c(Cl)c3)CC2)C(=O)N1 (stereo not shown) [Compound 190]
7,5010,O=C1CCC(c2ccc(C(=O)O)cc2)(C2CCN(Cc3ccc(Cl)cc3)CC2)C(=O)N1 (stereo not shown) [Compound 191]
8,2510,O=C1CCC(c2ccc(F)c(F)c2)(C2CCN(Cc3ccc(Cl)c(F)c3)CC2)C(=O)N1 (stereo not shown) [Compound 192]
9,316,Cc1cc(CN2CCC(C3(c4ccc(F)cc4F)CCC(=O)NC3=O)CC2)ccc1Br (stereo not shown) [Compound 196]
10,251,O=C1CCC(c2ccc(F)cc2F)(C2CCN(Cc3ccc(Br)cc3F)CC2)C(=O)N1 (stereo not shown) [Compound 198]
11,251,O=C1CCC(c2ccc(F)cc2F)(C2CCN(Cc3ccc(Cl)cc3)CC2)C(=O)N1 (stereo not shown) [Compound 199]
12,631,O=C1CCC(c2ccc(F)cc2F)(C2CCN(Cc3ccc(Cl)cc3Cl)CC2)C(=O)N1 (stereo not shown) [Compound 200]
13,398,O=C1CCC(c2ccc(F)cc2F)(C2CCN(Cc3ccc(Cl)c(Cl)c3)CC2)C(=O)N1 (stereo not shown) [Compound 201]
14,631,O=C1CCC(c2ccc(F)cc2F)(C2CCN(Cc3ccc(OC(F)F)cc3)CC2)C(=O)N1 (stereo not shown) [Compound 205]
15,1260,O=C1CCC(c2ccc(F)cc2F)(C2CCN(Cc3cc4cc(Br)ccc4o3)CC2)C(=O)N1 (stereo not shown) [Compound 206]
